Laboratory results reported in US7863264B2, “Stabilised compositions having antibacterial activity” (Coloplast A/S, priority 2000, dated 2011).

Experiments:
[1] = Solubility for 1:1 complexes (silver by atomic absorption spectroscopy); settings: Complex Ag:ligand 1:1; purified water
Method: The tube is placed on a vortex mixer for 1 h (1500 min^−1) and the tube is centrifuged (3000 min^−1/30 min). The water is decanted off and discarded, and another 10 ml purified water is added. This is repeated 2 times, and after the third centrifugation, the liquid decanted off is filtered (0.22 mm PVDF), preserved with nitric acid and the silver concentration is determined by atomic absorption spectroscopy after appropriate dilution.
Determination of solubility of complexes of silver with various ligands.

[2] = UV light stability test (visual and CIE-Lab colour measurement); assay type: physicochemical; design: key to Dist. (distance in CIE-Lab colour space): Dist = √(ΔL²+Δa²+Δb²) in CIE-Lab, before vs after UV; settings: for Visual evaluation of complexes after UV-irradiation: UV lamp 30 minutes, cut off approx. 280 nm; for L2 (CIE-Lab colour coordinate L) / b2 (CIE-Lab colour coordinate b) / a2 (CIE-Lab colour coordinate a): after 30 minutes UV irradiation; for L1 (CIE-Lab colour coordinate L) / b1 (CIE-Lab colour coordinate b) / a1 (CIE-Lab colour coordinate a): before irradiation; for Dist. (distance in CIE-Lab colour space): before vs after 30 minutes UV irradiation
Method: 1.5 g of complex was placed in a 50 mm Pyrex petri dish. This was covered with a 56 mm Pyrex lid with a UV-cut off at approx. 280 nm and placed 100 mm under a UV lamp (UVASPOT) 400/T 450W metal halide high pressure lamp, Dr. K. Hönle GmbH) for 30 minutes.
The colour was measured, with a Minolta CR300 colour measurement apparatus (CIE-Lab colour coordinates) before (1) and after (2) irradiation. Measurements were made approx. 1 mm above the complex. The distance in colour-space was calculated using the formula Dist=√{square root over (ΔL^2+Δa^2+Δb^2)}, where “L”, “a”, and “b” are the CIE-Lab Colour Coordinates Solubility for 1:1 Complexes:
Compounds according to the production in example 4 were assessed for stability against UV-light (wave length >280 nm). Milled powders were spread in a 1 mm thick layer in ordinary petri dishes and illuminated by the UV-light for 30 minutes.

| Compound | Solubility [1] [mg Ag/l] | Visual evaluation of complexes after UV-irradiation [2] | L2 (CIE-Lab colour coordinate L) [2] | b2 (CIE-Lab colour coordinate b) [2] | L1 (CIE-Lab colour coordinate L) [2] | b1 (CIE-Lab colour coordinate b) [2] | Dist. (distance in CIE-Lab colour space) [2] | a1 (CIE-Lab colour coordinate a) [2] | a2 (CIE-Lab colour coordinate a) [2] | discolouration of the product ([2]; complex made according to U.S. Pat. No. 2,336,131, UV test not meaningful) |
| --- | --- | --- | --- | --- | --- | --- | --- | --- | --- | --- |
| CC(=O)N1C(=O)[N-]C(=O)C1(C)C.[Ag+] [Ag/1-acetyl-5,5-dimethyl-hydantoin, Silver 1-acetyl-5,5-dimethyl-hydantoinate] | 1.100 |  |  |  |  |  |  |  |  |  |
| Silver 5,5-diethyl-hydantoinate [Ag/5,5-diethyl-hydantoin] |  | White/no trace of discolouration | 94.05 | 2.03 | 96.76 | 0.67 | 3.05 |  |  |  |
| Silver 5-methyl-5-isobutyl-hydantoinate [Ag/5-isobutyl-5-methyl-hydantoin] |  | White/no trace of discolouration | 92.65 | 1.74 | 92.4 | 0.42 | 1.36 | 0.03 |  |  |
| CC1(C)NC(=O)[N-]C1=O.[Ag+] [Ag/5,5-dimethyl-hydantoin, Silver 5,5-dimethyl-hydantoinate] |  | White/no trace of discolouration | 96.84 | 0.39 | 94.96 | 0.12 | 1.90 |  |  |  |
| O=C1CNC(=O)[N-]1.[Ag+] [Ag/hydantoin, Silver hydantoinate, reference compound] |  | Dark brown/heavily discoloured | 26.03 | 12.84 | 96.67 | 2.62 | 72.17 | 0.06 | 10.75 |  |
| Silver allantoinate [Ag-allantoin 1:1, reference compound] |  | Dark brown/heavily discoloured | 32.7 | 28.41 | 92.98 | 2.3 | 67.44 |  | 14.71 | discoloured extremely easily |
